Experimental findings from ChEMBL document CHEMBL4406790, “Targeted Treatments for Chronic Obstructive Pulmonary Disease (COPD) Using Low-Molecular-Weight Drugs (LMWDs)” (J Med Chem, 2019) are described below.

Data set [1] in a line: Inhibition of TNFalpha-induced NFkappaB (unknown origin). Set-up: species or system Homo sapiens.
The target of data set [2] is Muscarinic acetylcholine receptor M3 (Homo sapiens, UniProt P20309). The data set is described as follows: Antagonist activity at human M3 receptor.
Muscarinic acetylcholine receptor M3, sequence (P20309 whole entry): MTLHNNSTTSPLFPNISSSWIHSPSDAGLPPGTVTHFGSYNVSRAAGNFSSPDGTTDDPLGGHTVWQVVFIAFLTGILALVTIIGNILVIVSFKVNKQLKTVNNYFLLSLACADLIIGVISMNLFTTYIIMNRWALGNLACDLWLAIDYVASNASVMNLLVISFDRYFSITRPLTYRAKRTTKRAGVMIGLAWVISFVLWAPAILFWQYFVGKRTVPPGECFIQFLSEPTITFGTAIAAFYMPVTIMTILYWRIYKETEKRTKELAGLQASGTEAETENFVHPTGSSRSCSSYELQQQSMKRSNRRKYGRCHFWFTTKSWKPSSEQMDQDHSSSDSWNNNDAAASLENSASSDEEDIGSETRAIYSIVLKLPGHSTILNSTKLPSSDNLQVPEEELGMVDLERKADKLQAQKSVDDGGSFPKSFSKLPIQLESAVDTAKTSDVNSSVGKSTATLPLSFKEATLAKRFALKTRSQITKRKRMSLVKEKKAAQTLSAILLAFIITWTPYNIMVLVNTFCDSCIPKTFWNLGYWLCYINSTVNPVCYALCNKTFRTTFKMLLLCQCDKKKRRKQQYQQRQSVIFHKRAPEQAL
Data set [3] addresses T1, Beta-2 adrenergic receptor (Homo sapiens, UniProt P07550). The data set can be described thus: Agonist activity at human beta2 adrenoceptor.
For data set [4], the target named is Macrophage metalloelastase (Homo sapiens, UniProt P39900). The data set can be described thus: Inhibition of MMP12 (unknown origin).
Macrophage metalloelastase, sequence (P39900 whole entry): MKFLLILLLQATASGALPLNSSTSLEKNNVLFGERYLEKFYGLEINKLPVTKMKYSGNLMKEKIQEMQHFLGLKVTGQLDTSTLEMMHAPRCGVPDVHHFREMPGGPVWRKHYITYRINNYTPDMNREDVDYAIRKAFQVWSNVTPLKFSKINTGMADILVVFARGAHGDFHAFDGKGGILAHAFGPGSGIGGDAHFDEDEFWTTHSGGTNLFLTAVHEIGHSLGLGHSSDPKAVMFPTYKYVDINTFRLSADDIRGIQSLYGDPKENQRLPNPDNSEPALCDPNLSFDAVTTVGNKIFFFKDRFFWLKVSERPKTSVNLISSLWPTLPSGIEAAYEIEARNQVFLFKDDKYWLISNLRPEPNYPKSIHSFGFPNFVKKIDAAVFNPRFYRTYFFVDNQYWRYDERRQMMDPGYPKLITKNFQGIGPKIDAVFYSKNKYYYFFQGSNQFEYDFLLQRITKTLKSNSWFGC
Data set [5] can be described thus: Oral bioavailability in human. It is filed as ADME, organism-based. Particulars: in vivo.
Data set [6] can be described thus: Half life in human. It is filed as ADME.
In data set [7] the target is Voltage-gated inwardly rectifying potassium channel KCNH2 (Homo sapiens, UniProt Q12809). The data set can be described thus: Inhibition of human ERG by high throughput automated patch clamp method.
Voltage-gated inwardly rectifying potassium channel KCNH2, sequence (Q12809 whole entry): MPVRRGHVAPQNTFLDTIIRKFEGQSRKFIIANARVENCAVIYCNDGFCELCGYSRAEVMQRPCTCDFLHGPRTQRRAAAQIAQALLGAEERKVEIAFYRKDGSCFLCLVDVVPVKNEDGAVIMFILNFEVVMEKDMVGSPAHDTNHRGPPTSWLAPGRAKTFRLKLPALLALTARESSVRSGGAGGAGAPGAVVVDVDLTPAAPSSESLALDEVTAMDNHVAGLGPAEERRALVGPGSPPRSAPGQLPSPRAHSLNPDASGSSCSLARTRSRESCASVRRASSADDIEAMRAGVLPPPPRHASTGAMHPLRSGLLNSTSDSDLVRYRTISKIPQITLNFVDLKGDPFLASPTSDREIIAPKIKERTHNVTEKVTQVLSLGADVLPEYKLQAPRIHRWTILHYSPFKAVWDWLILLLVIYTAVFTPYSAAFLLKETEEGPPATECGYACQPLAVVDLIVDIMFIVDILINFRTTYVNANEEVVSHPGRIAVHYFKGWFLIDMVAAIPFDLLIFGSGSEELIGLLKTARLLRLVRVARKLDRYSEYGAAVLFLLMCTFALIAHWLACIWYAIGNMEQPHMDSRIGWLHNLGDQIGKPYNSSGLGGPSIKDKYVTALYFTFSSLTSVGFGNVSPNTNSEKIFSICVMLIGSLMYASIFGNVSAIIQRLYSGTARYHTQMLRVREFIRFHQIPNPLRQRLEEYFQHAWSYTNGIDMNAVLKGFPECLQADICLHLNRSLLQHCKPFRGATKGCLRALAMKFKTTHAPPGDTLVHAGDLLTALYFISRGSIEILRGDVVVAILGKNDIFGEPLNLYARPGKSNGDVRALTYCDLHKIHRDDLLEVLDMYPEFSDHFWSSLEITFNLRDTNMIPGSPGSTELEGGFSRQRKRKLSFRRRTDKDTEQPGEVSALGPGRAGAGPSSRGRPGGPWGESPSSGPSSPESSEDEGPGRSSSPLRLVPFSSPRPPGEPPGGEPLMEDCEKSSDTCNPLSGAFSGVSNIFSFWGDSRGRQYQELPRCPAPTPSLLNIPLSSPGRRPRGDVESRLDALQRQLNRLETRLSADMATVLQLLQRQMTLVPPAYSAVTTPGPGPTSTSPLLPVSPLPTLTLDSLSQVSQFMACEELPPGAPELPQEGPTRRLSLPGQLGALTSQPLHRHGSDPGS
Data set [8] deals with 3',5'-cyclic-AMP phosphodiesterase 4B (Homo sapiens, UniProt Q07343). The data set is described as follows: Inhibition of PDE4B2 (unknown origin).
3',5'-cyclic-AMP phosphodiesterase 4B, sequence (Q07343 whole entry): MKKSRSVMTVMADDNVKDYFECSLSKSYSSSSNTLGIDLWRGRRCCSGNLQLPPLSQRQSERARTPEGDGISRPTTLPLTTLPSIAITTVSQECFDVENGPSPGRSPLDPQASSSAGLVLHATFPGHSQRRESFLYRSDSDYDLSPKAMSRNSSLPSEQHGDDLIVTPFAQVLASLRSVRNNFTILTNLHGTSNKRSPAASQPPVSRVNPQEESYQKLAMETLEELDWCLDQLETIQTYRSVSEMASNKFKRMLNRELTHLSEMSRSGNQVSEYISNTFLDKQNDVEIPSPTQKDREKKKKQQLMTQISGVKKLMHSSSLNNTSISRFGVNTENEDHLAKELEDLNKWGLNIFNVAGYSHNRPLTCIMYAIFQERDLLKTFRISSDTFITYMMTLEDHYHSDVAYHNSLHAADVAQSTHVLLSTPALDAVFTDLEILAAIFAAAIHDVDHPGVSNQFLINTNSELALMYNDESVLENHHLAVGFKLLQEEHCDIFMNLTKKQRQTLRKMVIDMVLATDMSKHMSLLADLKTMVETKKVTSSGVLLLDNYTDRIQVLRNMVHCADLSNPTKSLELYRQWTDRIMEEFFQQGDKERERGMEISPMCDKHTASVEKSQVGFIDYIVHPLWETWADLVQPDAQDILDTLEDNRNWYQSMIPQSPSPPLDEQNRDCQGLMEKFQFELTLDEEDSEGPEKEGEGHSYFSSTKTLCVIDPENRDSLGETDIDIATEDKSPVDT
The target of data set [9] is T1, Beta-2 adrenergic receptor. The data set is described as follows: Inhibition of beta2 adrenoceptor (unknown origin).
The target of data set [10] is T2, Muscarinic acetylcholine receptor M2 (Homo sapiens, UniProt P08172).
T2 sequence (P08172 whole entry): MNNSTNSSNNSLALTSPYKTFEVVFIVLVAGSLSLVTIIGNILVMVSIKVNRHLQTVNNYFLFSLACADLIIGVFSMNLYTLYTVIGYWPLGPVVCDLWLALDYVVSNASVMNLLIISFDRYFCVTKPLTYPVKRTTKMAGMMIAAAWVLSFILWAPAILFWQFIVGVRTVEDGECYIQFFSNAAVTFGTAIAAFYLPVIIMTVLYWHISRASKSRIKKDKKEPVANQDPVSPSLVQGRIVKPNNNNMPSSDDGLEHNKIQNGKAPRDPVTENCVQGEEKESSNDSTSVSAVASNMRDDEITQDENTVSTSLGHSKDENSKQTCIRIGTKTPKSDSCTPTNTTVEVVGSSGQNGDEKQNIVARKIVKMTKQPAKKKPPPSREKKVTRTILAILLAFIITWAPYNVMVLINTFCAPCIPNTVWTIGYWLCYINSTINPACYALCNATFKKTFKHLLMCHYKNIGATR
The data set can be described thus: Inhibition of M2 receptor (unknown origin).

SMILES strings stand for the structures.

T1 sequence (P07550 whole entry): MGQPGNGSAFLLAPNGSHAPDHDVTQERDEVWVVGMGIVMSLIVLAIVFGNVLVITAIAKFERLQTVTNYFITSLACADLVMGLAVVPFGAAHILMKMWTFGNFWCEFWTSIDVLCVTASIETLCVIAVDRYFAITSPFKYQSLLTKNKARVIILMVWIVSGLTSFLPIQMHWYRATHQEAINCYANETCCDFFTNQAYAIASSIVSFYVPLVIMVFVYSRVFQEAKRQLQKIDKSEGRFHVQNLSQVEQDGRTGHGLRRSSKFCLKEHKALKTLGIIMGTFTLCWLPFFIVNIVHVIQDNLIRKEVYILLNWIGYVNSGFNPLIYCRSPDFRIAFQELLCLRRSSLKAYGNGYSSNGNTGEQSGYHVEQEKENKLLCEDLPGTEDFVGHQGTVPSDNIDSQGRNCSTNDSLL

`O=C(Nc1cc(C(F)(F)F)cc(C(F)(F)F)c1)c1cc(Cl)ccc1O` [IMD-0354] registered a half-inhibitory concentration (IC50) in data set [1] of 1200 nM.

In [2], `CC(C)c1ncc(C(=O)N2CCOC3(CCN(Cc4ccc(F)c(CCNC[C@H](O)c5ccc(O)c6[nH]c(=O)sc56)c4)CC3)C2)s1` showed an IC50 of 1.58 nM. Also, the EC50 in [3] was 0.251 nM.

On to `COc1ccc(Oc2ccc(S(=O)(=O)c3ccccc3CC(=O)NO)cc2)cc1`, for which the IC50 in [4] amounted to 0.2 nM.

In the case of `CC(C)(O)c1coc(S(=O)(=O)NC(=O)Nc2c3c(cc4c2CCC4)CCC3)c1`, in [5], the bioavailability was 68%. This molecule also showed a half-life in data set [6] of 3.27 h. Further, the IC50 in data set [7] is greater than 30000 nM.

Consider `COc1cccc(Nc2c(C(N)=O)cnc3c(C)cc(S(=O)(=O)c4cccc(C(=O)Nc5ccc(C#CCCCNC[C@H](O)c6ccc(O)c7[nH]c(=O)ccc67)cc5)c4)cc23)c1`, for which the values for the IC50 in data set [8] and in data set [9] were 5 nM and 11 nM, respectively.

`COc1cc(NC(=O)OCCN(C)[C@H]2CC[C@H](OC(=O)C(O)(c3cccs3)c3cccs3)CC2)c(Cl)cc1CNC[C@H](O)c1ccc(O)c2[nH]c(=O)ccc12` [LAS190792]: it took 0.251 nM to reach a half-maximal effect in data set [3] (EC50).

`COc1cc(NC(=O)CCN2CCC(OC(=O)Nc3ccccc3-c3ccccc3)CC2)c(Cl)cc1CNC[C@H](O)c1ccc(O)c2[nH]c(=O)ccc12` [BATEFENTEROL] showed a half-inhibitory concentration (IC50) in data set [2] of 1.58 nM.

In the case of `CN(CCCn1nnc2cc(CNC[C@H](O)c3ccc(O)c4[nH]c(=O)ccc34)ccc21)[C@H]1CC[C@H](OC(=O)C(O)(c2cccs2)c2cccs2)CC1` [NAVAFENTEROL], the IC50 in data set [2] is 1.58 nM. Moreover, in [3], it took 0.251 nM to reach a half-maximal effect (EC50).

In turn, `C[N+]12CCC(CC1)C(OCC(O)(c1ccccc1)C1CCCC1)C2` (stereo unspecified) [BENCYCLOQUIDIUM BROMIDE] had a Ki in data set [10] of 6.17 nM. That is a single-digit nanomolar value.

In data set [5], `CC1=C(C#N)[C@@H](c2ccc(C#N)cc2S(C)(=O)=O)N(C)C(=O)N1c1cccc(C(F)(F)F)c1` had a bioavailability of 63%. This molecule showed a half-life in data set [6] of 8.5 h.
